# Source: PubChem BioAssay (NCI)
#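 Where inhibition never reached the appropriate level, the endpoint shown equals the highest concentration tested. Otherwise, values were interpolated linearly from a five-concentration, 48-hour dose response in 96-well plates. Abbreviation: GI50, concentration required for 50% inhibition of growth. TGI marks complete inhibition of growth.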
# Legend:
# Test in all cases: NCI-60 cell line screen, 48 h
# HS 578T breast = test system: HS 578T breast
# RPMI-8226 leukemia = test system: RPMI-8226 leukemia
# SW-620 colon = test system: SW-620 colon
# HCT-15 colon = test system: HCT-15 colon
# T-47D breast = test system: T-47D breast
# CCRF-CEM leukemia = test system: CCRF-CEM leukemia
# HCT-116 colon = test system: HCT-116 colon
# NCI-H23 lung = test system: NCI-H23 lung
# A498 renal = test system: A498 renal
# ACHN renal = test system: ACHN renal
# NCI/ADR-RES ovarian = test system: NCI/ADR-RES ovarian
# MOLT-4 leukemia = test system: MOLT-4 leukemia
# CAKI-1 renal = test system: CAKI-1 renal
# SK-OV-3 ovarian = test system: SK-OV-3 ovarian
# IGROV1 ovarian = test system: IGROV1 ovarian
# SF-268 CNS = test system: SF-268 CNS
# TK-10 renal = test system: TK-10 renal
# MDA-MB-231 breast = test system: MDA-MB-231 breast
# SK-MEL-5 melanoma = test system: SK-MEL-5 melanoma
# EKVX NSCLC = test system: EKVX NSCLC
# MDA-MB-435 = test system: MDA-MB-435
# BT-549 breast = test system: BT-549 breast
# HT29 colon = test system: HT29 colon
# PC-3 prostate = test system: PC-3 prostate
# HL-60(TB) leukemia = test system: HL-60(TB) leukemia
# MALME-3M melanoma = test system: MALME-3M melanoma
# SN12C renal = test system: SN12C renal
# MDA-N = test system: MDA-N
# UO-31 renal = test system: UO-31 renal
# SK-MEL-2 melanoma = test system: SK-MEL-2 melanoma
# DU-145 prostate = test system: DU-145 prostate
# M14 melanoma = test system: M14 melanoma
# OVCAR-3 ovarian = test system: OVCAR-3 ovarian
# SNB-19 CNS = test system: SNB-19 CNS
# MCF7 breast = test system: MCF7 breast
# OVCAR-8 ovarian = test system: OVCAR-8 ovarian
# UACC-257 melanoma = test system: UACC-257 melanoma
# K-562 leukemia = test system: K-562 leukemia
# U251 CNS = test system: U251 CNS
# SR leukemia = test system: SR leukemia
# SK-MEL-28 melanoma = test system: SK-MEL-28 melanoma
# NCI-H226 lung = test system: NCI-H226 lung
# SF-539 CNS = test system: SF-539 CNS
# LOX IMVI melanoma = test system: LOX IMVI melanoma
# NCI-H460 lung = test system: NCI-H460 lung
# RXF 393 renal = test system: RXF 393 renal
# SF-295 CNS = test system: SF-295 CNS
# OVCAR-5 ovarian = test system: OVCAR-5 ovarian
# SNB-75 CNS = test system: SNB-75 CNS
# COLO 205 colon = test system: COLO 205 colon
# HOP-62 NSCLC = test system: HOP-62 NSCLC
# 786-0 renal = test system: 786-0 renal
smiles,measurement,setting,value
O=C1c2cccnc2-c2nc(-c3ccncc3)cc3c2c1nc1ccccc13,GI50,HS 578T breast,10.6 µM
same,TGI,HS 578T breast,23.1 µM
same,GI50,RPMI-8226 leukemia,14.6 µM
same,TGI,RPMI-8226 leukemia,64.8 µM
same,GI50,SW-620 colon,12.7 µM
same,TGI,SW-620 colon,41.6 µM
same,GI50,HCT-15 colon,10.2 µM
same,TGI,HCT-15 colon,21.8 µM
same,GI50,T-47D breast,44.9 µM
same,TGI,T-47D breast,> 100 µM
same,GI50,CCRF-CEM leukemia,8.03 µM
same,TGI,CCRF-CEM leukemia,39.6 µM
same,GI50,HCT-116 colon,17.1 µM
same,TGI,HCT-116 colon,51 µM
same,GI50,NCI-H23 lung,12.5 µM
same,TGI,NCI-H23 lung,28 µM
same,GI50,A498 renal,38.5 µM
same,TGI,A498 renal,> 100 µM
same,GI50,ACHN renal,12.1 µM
same,TGI,ACHN renal,24.4 µM
same,GI50,NCI/ADR-RES ovarian,9.63 µM
same,TGI,NCI/ADR-RES ovarian,24.8 µM
same,GI50,MOLT-4 leukemia,5.14 µM
same,TGI,MOLT-4 leukemia,> 100 µM
same,GI50,CAKI-1 renal,16.4 µM
same,TGI,CAKI-1 renal,34.8 µM
same,GI50,SK-OV-3 ovarian,> 100 µM
same,TGI,SK-OV-3 ovarian,> 100 µM
same,GI50,IGROV1 ovarian,4.67 µM
same,TGI,IGROV1 ovarian,28.8 µM
same,GI50,SF-268 CNS,15.1 µM
same,TGI,SF-268 CNS,34.5 µM
same,GI50,TK-10 renal,19.5 µM
same,TGI,TK-10 renal,40.2 µM
same,GI50,MDA-MB-231 breast,14.3 µM
same,TGI,MDA-MB-231 breast,50.1 µM
same,GI50,SK-MEL-5 melanoma,14.1 µM
same,TGI,SK-MEL-5 melanoma,36.5 µM
same,GI50,EKVX NSCLC,24.3 µM
same,TGI,EKVX NSCLC,> 100 µM
same,GI50,MDA-MB-435,15.5 µM
same,TGI,MDA-MB-435,30.1 µM
same,GI50,BT-549 breast,24.6 µM
same,TGI,BT-549 breast,62.1 µM
same,GI50,HT29 colon,17.9 µM
same,TGI,HT29 colon,31.7 µM
same,GI50,PC-3 prostate,16.1 µM
same,TGI,PC-3 prostate,61.9 µM
same,GI50,HL-60(TB) leukemia,12.3 µM
same,TGI,HL-60(TB) leukemia,89.6 µM
same,GI50,MALME-3M melanoma,14.9 µM
same,TGI,MALME-3M melanoma,29.3 µM
same,GI50,SN12C renal,20 µM
same,TGI,SN12C renal,47.5 µM
same,GI50,MDA-N,19.9 µM
same,TGI,MDA-N,35.9 µM
same,GI50,UO-31 renal,33.2 µM
same,TGI,UO-31 renal,> 100 µM
same,GI50,SK-MEL-2 melanoma,> 100 µM
same,TGI,SK-MEL-2 melanoma,> 100 µM
same,GI50,DU-145 prostate,20.6 µM
same,TGI,DU-145 prostate,42.7 µM
same,GI50,M14 melanoma,17.8 µM
same,TGI,M14 melanoma,31.6 µM
same,GI50,OVCAR-3 ovarian,7.51 µM
same,TGI,OVCAR-3 ovarian,20 µM
same,GI50,SNB-19 CNS,19.3 µM
same,TGI,SNB-19 CNS,47.4 µM
same,GI50,MCF7 breast,11.4 µM
same,TGI,MCF7 breast,23.5 µM
same,GI50,OVCAR-8 ovarian,10.5 µM
same,TGI,OVCAR-8 ovarian,24 µM
same,GI50,UACC-257 melanoma,> 100 µM
same,TGI,UACC-257 melanoma,> 100 µM
same,GI50,K-562 leukemia,15.4 µM
same,TGI,K-562 leukemia,> 100 µM
same,GI50,U251 CNS,12 µM
same,TGI,U251 CNS,64.5 µM
same,GI50,SR leukemia,2.94 µM
same,TGI,SR leukemia,> 100 µM
same,GI50,SK-MEL-28 melanoma,> 100 µM
same,TGI,SK-MEL-28 melanoma,> 100 µM
same,GI50,NCI-H226 lung,10.9 µM
same,TGI,NCI-H226 lung,22.8 µM
same,GI50,SF-539 CNS,2.95 µM
same,TGI,SF-539 CNS,13.6 µM
same,GI50,LOX IMVI melanoma,16.1 µM
same,TGI,LOX IMVI melanoma,43.6 µM
same,GI50,NCI-H460 lung,6.29 µM
same,TGI,NCI-H460 lung,19.5 µM
same,GI50,RXF 393 renal,15.6 µM
same,TGI,RXF 393 renal,66.7 µM
same,GI50,SF-295 CNS,15.1 µM
same,TGI,SF-295 CNS,28.4 µM
same,GI50,OVCAR-5 ovarian,31.2 µM
same,TGI,OVCAR-5 ovarian,> 100 µM
same,GI50,SNB-75 CNS,13.1 µM
same,TGI,SNB-75 CNS,25.8 µM
same,GI50,COLO 205 colon,30 µM
same,TGI,COLO 205 colon,72.6 µM
same,GI50,HOP-62 NSCLC,14.3 µM
same,TGI,HOP-62 NSCLC,27.4 µM
same,GI50,786-0 renal,15 µM
same,TGI,786-0 renal,39.9 µM
